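Dose response: 5 concentrations. Exposure: 48 h. Format: 96-well plates. Endpoint: linear interpolation; highest concentration if not reached. At the GI50, growth is halved.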 Activity calls are given as the source filed them. Cut-off read from the data, not from the text of the source: active = GI50 up to about 1.1 µM and inactive = higher.
How the values were obtained:
Experiment in all cases: DTP human tumour cell line panel, 48 h
UACC-257 = system: UACC-257
SNB-19 = system: SNB-19
RPMI-8226 = system: RPMI-8226
SN12C = system: SN12C
KM12 = system: KM12
NCI-H522 = system: NCI-H522
A549 = system: A549
786-0 = system: 786-0
NCI-H23 = system: NCI-H23
LOX IMVI = system: LOX IMVI
SK-MEL-2 = system: SK-MEL-2
M14 = system: M14
HOP-62 = system: HOP-62
OVCAR-4 = system: OVCAR-4
HCT-15 = system: HCT-15
CCRF-CEM = system: CCRF-CEM
MDA-MB-435 = system: MDA-MB-435
NCI/ADR-RES = system: NCI/ADR-RES
DU-145 = system: DU-145
MDA-MB-231 = system: MDA-MB-231

Row | Structure (SMILES) | GI50 (UACC-257) | GI50 (SNB-19) | GI50 (RPMI-8226) | GI50 (SN12C) | GI50 (KM12) | GI50 (NCI-H522) | GI50 (A549) | GI50 (786-0) | GI50 (NCI-H23) | GI50 (LOX IMVI) | GI50 (SK-MEL-2) | GI50 (M14) | GI50 (HOP-62) | GI50 (OVCAR-4) | GI50 (HCT-15) [µM] | GI50 (CCRF-CEM) | GI50 (MDA-MB-435) | GI50 (NCI/ADR-RES) | GI50 (DU-145) | GI50 (MDA-MB-231)
1 | CCN/C(=N\Nc1ccc([N+](=O)[O-])cc1)P(=O)(OC(C)C)OC(C)C | 68.1 µM (inactive) | > 100 µM (inactive) | > 100 µM (inactive) | > 100 µM (inactive) | > 100 µM (inactive) | > 100 µM (inactive) | > 100 µM (inactive) | > 100 µM (inactive) | > 100 µM (inactive) | > 100 µM (inactive) | > 100 µM (inactive) | > 100 µM (inactive) | 95.9 µM (inactive) | 44.2 µM (inactive) | > 100 | > 100 µM (inactive) | – | – | – | –
2 | CC(C)(C)OC(=O)N1N=NC2C3OC(CC3=O)C21 (stereo unspecified) | > 100 µM (inactive) | > 100 µM (inactive) | > 100 µM (inactive) | > 100 µM (inactive) | > 10 µM (inactive) | > 100 µM (inactive) | > 100 µM (inactive) | > 100 µM (inactive) | > 100 µM (inactive) | > 100 µM (inactive) | > 100 µM (inactive) | > 100 µM (inactive) | > 100 µM (inactive) | > 10 µM (inactive) | > 100 | 40.9 µM (inactive) | – | – | – | –
3 | Cc1cn(C2CC(ON3C(=O)c4ccccc4C3=O)C(CO)O2)c(=O)[nH]c1=O (stereo unspecified) | > 10 µM (inactive) | > 10 µM (inactive) | – | > 10 µM (inactive) | > 10 µM (inactive) | > 10 µM (inactive) | > 10 µM (inactive) | > 10 µM (inactive) | > 10 µM (inactive) | > 10 µM (inactive) | > 10 µM (inactive) | > 10 µM (inactive) | – | > 10 µM (inactive) | > 10 | > 10 µM (inactive) | > 10 µM (inactive) | > 10 µM (inactive) | > 10 µM (inactive) | –
4 | O=C(OCC1CO1)c1cccs1 (stereo unspecified) | > 100 µM (inactive) | > 100 µM (inactive) | > 100 µM (inactive) | > 100 µM (inactive) | > 100 µM (inactive) | 17 µM (inactive) | > 100 µM (inactive) | > 100 µM (inactive) | > 100 µM (inactive) | > 100 µM (inactive) | > 100 µM (inactive) | > 100 µM (inactive) | > 100 µM (inactive) | > 100 µM (inactive) | > 100 | > 100 µM (inactive) | – | – | – | –
5 | Cn1c(=O)c2nc(Nc3ccccc3)[nH]c2n(C)c1=O | > 10 µM (inactive) | – | > 10 µM (inactive) | > 10 µM (inactive) | > 10 µM (inactive) | – | > 10 µM (inactive) | > 10 µM (inactive) | > 10 µM (inactive) | > 10 µM (inactive) | – | > 10 µM (inactive) | > 10 µM (inactive) | > 10 µM (inactive) | > 10 | > 10 µM (inactive) | > 10 µM (inactive) | – | > 10 µM (inactive) | > 10 µM (inactive)
